Common to all, as to format: binding
Conditions in all cases: single dose, Dose = 10 µM

The target of one test is T1, STARD3 (Homo sapiens, UniProt Q14849).
T1 construct: STARD3(216-444); made in house; host or cells: E. coli BL21(DE3)
T1 sequence (Q14849 216-444): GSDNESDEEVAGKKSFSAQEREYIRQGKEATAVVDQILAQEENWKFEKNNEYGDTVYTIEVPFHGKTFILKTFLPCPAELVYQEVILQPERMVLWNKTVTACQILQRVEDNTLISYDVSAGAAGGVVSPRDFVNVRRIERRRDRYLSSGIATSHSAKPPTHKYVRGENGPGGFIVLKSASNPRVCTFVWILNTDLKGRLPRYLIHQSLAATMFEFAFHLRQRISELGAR
The experiment in a line: Differential scanning fluorimetry (DSF), STARD3. The text has this:
(§1) Protein expression constructs
(§2) Human ASTER domains of Aster-A(359-547), -B(364-552) and -C(318-504) were subcloned into a pGEX-6p-2rbs vector, thus introducing the cloning artifact ‘GPLGS’.3 The pGEX-6P-1-GST-OSBP(377- […]
(§3) a gift from James H. Hurley (University of California).4 The pHIS_2His6_Thrombin_STARD4(2-205;C75S) plasmid was a gift from Young Jun Im (Chonnam National University).5 STARD5A was a gift from Nicola Burgess-Brown (Addgene plasmid #42392; http://n2t.net/addgene:42392; […]
(§4) Protein expression and purification […]
(§5) vectors including an N-terminal PreScission-cleavable glutathione S-transferase (GST)-tag were expressed in Escherichia coli (E. coli) OverExpress C41 in Terrific Broth (TB) medium for 16 h at 18 °C after the induction with 0.1 mM isopropyl β-D-1-thiogalactopyranoside (IPTG). Cells were harvested at 3500 × g for 15 minutes and lysed by sonication in buffer containing 50 mM HEPES pH 7.5, 300 mM NaCl, 10 %v/v glycerol, 5 mM dithiothreitol (DTT), 0.1 %v/v Triton X-100 and protease inhibitor mix HP plus (Serva). The lysate was purified by affinity chromatography on a GSTrap FF column (Cytiva) using an ÄKTA Start (Cytiva) in buffer containing 50 mM HEPES pH 7.5, 300 mM NaCl, 10 %v/v glycerol, 5 mM DTT and 0.01 %v/v Triton X-100. The GST-tag was cleaved overnight on the column at 4 °C. The Aster sterol binding domains were further purified by size-exclusion chromatography (SEC) on a HiLoad 16/600 Superdex 75 pg (Cytiva) in buffer containing 20 mM HEPES pH 7.5, 300 mM NaCl, 10 %v/v […]
(§6) STARD5(6-213) harboring an N-terminal His6-Tag were expressed in E. coli BL21(DE3) in Luria-Bertani Broth (LB) medium for approximately 16 h at 18 °C after induction with 0.15 mM IPTG. Cells were harvested at 3500 × g for 15 minutes and lysed by sonication in buffer containing 50 mM HEPES pH 7.5, 150 mM NaCl, 5 %v/v glycerol, 5 mM DTT, 0.1 %v/v Triton X -100 and ethylenediaminetetraacetic acid (EDTA)-free protease inhibitor cocktail (Sigma-Aldrich). The cleared lysate was purified by affinity chromatography on a Ni-NTA Superflow Cartridge (Qiagen) using an ÄKTA Start (Cytiva) in buffer containing 50 mM HEPES pH 7.5, 150 mM NaCl, 5 %v/v glycerol, 5 mM DTT. START domains were eluted by using elution buffer containing 50 mM HEPES pH 7.5, 150 mM NaCl, 5 %v/v glycerol, 5 mM DTT and 500 mM imidazole. Proteins were further purified by SEC on a HiLoad 16/600 Superdex 75 pg (Cytiva) in buffer containing 20 mM HEPES pH 7.5, 150 mM NaCl, 5 %v/v glycerol and 2 mM DTT.
(§7) The ORP domain of human OSBP(377-807) in the pGEX-6p-1 vector with an N-terminal PreScission-cleavable GST-tag was expressed in E. coli OverExpress C41 in LB medium for 16 h at 18 °C after induction with 0.1 mM IPTG. Cells were harvested at 3500 × g for 15 minutes and lysed by sonication in buffer containing 20 mM HEPES pH 7.5, 300 mM NaCl, 10 %v/v glycerol, 5 mM DTT, 0.1 %v/v Triton X-100 and EDTA-free protease inhibitor cocktail (Sigma-Aldrich). The cleared lysate was purified by affinity chromatography on a GSTrap HF column (Cytiva) using an ÄKTA Start (Cytiva) in buffer containing 20 mM HEPES pH 7.5, 300 mM NaCl, 10 %v/v glycerol, 5 mM DTT. OSBP(377 -807) was eluted by using elution buffer containing 20 mM HEPES pH 7.5, 300 mM NaCl, 10 %v/v glycerol, 5 mM DTT and 10 mM reduced glutathione. Proteins were further purified by SEC on a HiLoad 16/600 Superdex 75 pg (Cytiva) using an ÄKTA Explorer (Cytiva) in buffer containing 20 mM HEPES pH 7.5, 150 mM NaCl, 10 %v/v glycerol and 2 mM DTT.
(§8) The ORP domains of human ORP1(534-950) in pET24b(+) and ORP2(49-480) in the pET24b(+) vector including an N-terminal His6-Tag were expressed in E. coli BL21(DE3) in TB medium for approximately 16 h at 18 °C after induction with 0.1 mM IPTG. Cells were collected at 3500 × g for 15 minutes and lysed by sonification in buffer containing 10 mM Tris-HCl pH 8, 300 mM NaCl, 5 % glycerol, 2 mM DTT, 0.1 % Triton X-100 and EDTA-free protease inhibitor cocktail (Sigma-Aldrich). The cleared […]
A general note: In DSF a fluorescence change marks the thermal transition of the protein.

A further test concerns the target T2, STARD4 (Homo sapiens, UniProt Q96DR4, C75S).
T2 construct: STARD4(2-205; C75S); made in house; host or cells: E. coli BL21(DE3)
T2 sequence (Q96DR4 2-205 C75S): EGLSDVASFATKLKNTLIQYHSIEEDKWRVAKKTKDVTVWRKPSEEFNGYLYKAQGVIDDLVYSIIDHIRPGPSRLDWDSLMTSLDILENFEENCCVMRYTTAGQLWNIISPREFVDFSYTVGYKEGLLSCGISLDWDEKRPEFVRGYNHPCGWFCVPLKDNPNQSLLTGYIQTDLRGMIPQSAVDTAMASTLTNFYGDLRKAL
Briefly: Differential scanning fluorimetry (DSF), STARD4.
Excerpt: as §1, §2, §3, §4, §5, §6, §7, §8

The next test deals with T3, STARD5 (Homo sapiens, UniProt Q9NSY2).
T3 construct: STARD5(6-213); host or cells: E. coli BL21(DE3)
T3 sequence (Q9NSY2 6-213): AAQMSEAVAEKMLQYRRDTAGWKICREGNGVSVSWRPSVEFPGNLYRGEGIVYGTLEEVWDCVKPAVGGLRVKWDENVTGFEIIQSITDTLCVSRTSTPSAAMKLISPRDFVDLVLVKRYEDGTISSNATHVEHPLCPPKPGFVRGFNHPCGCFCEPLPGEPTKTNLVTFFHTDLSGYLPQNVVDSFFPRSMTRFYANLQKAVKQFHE
The experiment in a line: Differential scanning fluorimetry (DSF), STARD5.
Excerpt: as §1, §2, §3, §4, §5, §6, §7, §8

In the case of `Cc1ccc2c(c1)C(=O)[C@]1(CC[C@@H]3C[C@H](O)CC[C@@]31C)N2` [Compound 13], the ΔTm at 10 µM at STARD3 is -0.0638 °C; at STARD4, 1.1 °C; at STARD5 it was 0.143 °C.

As a reminder, the ΔTm is the shift of the melting midpoint relative to a reference.
